Target: recombinant human HPK1 (Homo sapiens (Human), UniProt Q92918)
Assay: HPK1 kinase assay (ADP-Glo)
Format: biochemical
Details: 25 μM ATP, MBP substrate
Experimental: HPK1 kinase activity was measured by Promega's ADP-Glo™ kinase assay. In this assay, 5 ng of recombinant human HPK1 (signalchem) is incubated with 5 μL of compounds (0.5% DMSO), 5 μL of MBP (0.5 μg/μl) and 5 μL of ATP (25 μM) in buffer (40 mM Tris, 7.5; 20 mM MgCl2; 0.1 mg/ml BSA; 5 μM DTT). The assay was started by incubating the reaction mixture in a 96-well plate at 30′ C for 40 minutes. After the incubation, 25 uL ADP-Glo reagent was added and the reaction was incubated at room temperature for 40-min to stop the reaction and degrade residual ATP. The ADP product was then converted to ATP by adding 50 uL per well of detection reagent. Luminescence was detected after 30-min room temperature incubation with the Molecular device I3X plate reader. The IC50 values were calculated from a series of percent inhibition values determined at a range of inhibitor concentration using software routines as implemented in the GraphPad Prism 7 software and SigmaPlot13.0.

Chain of recombinant human HPK1 (Q92918 whole entry): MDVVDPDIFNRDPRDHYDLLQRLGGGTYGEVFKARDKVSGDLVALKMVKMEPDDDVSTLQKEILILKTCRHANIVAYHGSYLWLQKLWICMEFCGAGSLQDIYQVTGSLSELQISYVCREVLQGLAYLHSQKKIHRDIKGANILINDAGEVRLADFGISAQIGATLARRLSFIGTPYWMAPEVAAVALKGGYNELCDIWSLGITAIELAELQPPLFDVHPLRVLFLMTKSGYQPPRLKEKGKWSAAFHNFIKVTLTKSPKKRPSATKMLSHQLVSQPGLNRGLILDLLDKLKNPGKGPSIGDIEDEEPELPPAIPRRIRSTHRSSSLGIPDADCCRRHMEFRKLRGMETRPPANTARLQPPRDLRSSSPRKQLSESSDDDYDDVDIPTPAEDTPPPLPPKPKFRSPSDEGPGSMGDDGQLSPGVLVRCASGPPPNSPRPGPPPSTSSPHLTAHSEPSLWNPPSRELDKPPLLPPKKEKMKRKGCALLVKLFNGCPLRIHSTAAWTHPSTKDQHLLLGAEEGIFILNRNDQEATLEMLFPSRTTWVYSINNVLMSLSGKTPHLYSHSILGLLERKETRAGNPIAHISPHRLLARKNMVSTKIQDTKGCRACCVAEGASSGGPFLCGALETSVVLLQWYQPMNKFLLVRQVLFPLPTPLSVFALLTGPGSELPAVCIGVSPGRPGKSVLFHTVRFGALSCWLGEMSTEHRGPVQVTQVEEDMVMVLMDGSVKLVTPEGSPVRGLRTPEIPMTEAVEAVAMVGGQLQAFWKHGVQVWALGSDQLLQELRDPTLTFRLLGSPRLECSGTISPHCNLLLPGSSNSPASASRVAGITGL

| Structure (SMILES) | IC50 [nM] |
| --- | --- |
| Cc1c(F)c(OC(F)(F)F)c2[nH]ncc2c1-c1ccc2nc(NC(=O)[C@@H]3C[C@@H]3F)sc2n1 [Example 213, (1S,2S)-2-fluoro-N-(5-(6-fluoro-5-methyl-7-(trifluoromethoxy)-1H-indazol-4-yl)thiazolo[5,4-b]pyridin-2-yl)cyclopropane-1-carboxamide] | > 1000 |
| Cc1ccc2[nH]ncc2c1-c1ccc2nc(NC(=O)C3CC3CO)cn2c1 (stereo not shown) [Example 278, 2-(hydroxymethyl)-N-(6-(5-methyl-1H-indazol-4-yl)imidazo[1,2-a]pyridin-2-yl)cyclopropane-1-carboxamide] | > 1000 |
| CN(C)C(=O)c1c(F)cc2[nH]ncc2c1-c1ccc2nc(NC(=O)[C@@H]3C[C@@H]3F)sc2c1 [Example 145, 6-fluoro-4-(2-((1S,2S)-2-fluorocyclopropane-1-carboxamido)benzo[d]thiazol-6-yl)-N,N-dimethyl-1H-indazole-5-carboxamide] | > 1000 |
| CC(NC(=O)C1CCC1)c1c(F)c(Cl)c(-c2ccc3nc(NC(=O)[C@@H]4C[C@@H]4F)cn3c2)c2cn[nH]c12 (stereo partly drawn) [Example 430, N-(1-(5-chloro-6-fluoro-4-(2-((1S,2S)-2-fluorocyclopropane-1-carboxamido)imidazo[1,2-a]pyridin-6-yl)-1H-indazol-7-yl)ethyl)cyclobutanecarboxamide] | < 100 |
| O=C(Nc1cn2cc(-c3c(Cl)ccc4[nH]ncc34)ccc2n1)C1CC1 [Example 223, N-(6-(5-chloro-1H-indazol-4-yl)imidazo[1,2-a]pyridin-2-yl)cyclopropanecarboxamide] | < 100 |
| Cc1c(F)c(S(C)(=O)=O)c2[nH]ncc2c1-c1ccc2nc(NC(=O)[C@@H]3C[C@@H]3F)cn2c1 [Example 270, (1S,2S)-2-fluoro-N-(6-(6-fluoro-5-methyl-7-(methylsulfonyl)-1H-indazol-4-yl)imidazo[1,2-a]pyridin-2-yl)cyclopropane-1-carboxamide] | 101 to 500 |
| CN(c1ccccn1)c1c(F)c(Cl)c(-c2ccc3nc(NC(=O)[C@@H]4C[C@@H]4F)cn3c2)c2cn[nH]c12 [Example 337, (1S,2S)-N-(6-(5-chloro-6-fluoro-7-(methyl(pyridin-2-yl)amino)-1H-indazol-4-yl)imidazo[1,2-a]pyridin-2-yl)-2-fluorocyclopropane-1-carboxamide] | < 100 |
| CCc1c(F)c(SCC(=O)N(C)C)c2[nH]ncc2c1-c1ccc2nc(NC(=O)[C@@H]3C[C@@H]3F)sc2n1 [Example 166, (1S,2S)-N-(5-(7-((2-(dimethylamino)-2-oxoethyl)thio)-5-ethyl-6-fluoro-1H-indazol-4-yl)thiazolo[5,4-b]pyridin-2-yl)-2-fluorocyclopropane-1-carboxamide] | < 100 |
| CCN(C)c1c(F)c(Cl)c(-c2ccc3nc(NC(=O)[C@@H]4C[C@@H]4F)sc3c2)c2cn[nH]c12 [Example 133, (1S,2S)-N-(6-(5-chloro-7-(ethyl(methyl)amino)-6-fluoro-1H-indazol-4-yl)benzo[d]thiazol-2-yl)-2-fluorocyclopropane-1-carboxamide] | < 100 |
| CC(c1c(F)c(Cl)c(-c2ccc3nc(NC(=O)[C@@H]4C[C@@H]4F)cn3c2)c2cn[nH]c12)n1cnnn1 (stereo partly drawn) [Example 398, (1S,2S)-N-(6-(7-(1-(1H-tetrazol-1-yl)ethyl)-5-chloro-6-fluoro-1H-indazol-4-yl)imidazo[1,2-a]pyridin-2-yl)-2-fluorocyclopropane-1-carboxamide] | < 100 |
| CSc1c(F)cc2[nH]ncc2c1-c1cc2sc(NC(=O)[C@@H]3C[C@@H]3F)nc2cn1 [Example 219, (1S,2S)-2-fluoro-N-(6-(6-fluoro-5-(methylthio)-1H-indazol-4-yl)thiazolo[4,5-c]pyridin-2-yl)cyclopropane-1-carboxamide] | 101 to 500 |
| O=C(Nc1nc2ccc(-c3c(Cl)c(F)c(F)c4[nH]ncc34)nc2s1)[C@@H]1C[C@@H]1F [Example 208, (1S,2S)-N-(5-(5-chloro-6,7-difluoro-1H-indazol-4-yl)thiazolo[5,4-b]pyridin-2-yl)-2-fluorocyclopropane-1-carboxamide 2,2,2-trifluoroacetate] | < 100 |
| O=C(Nc1cn2cc(-c3c(Cl)c(F)cc4[nH]ncc34)ccc2n1)C1CC1 [Example 242, N-(6-(5-chloro-6-fluoro-1H-indazol-4-yl)imidazo[1,2-a]pyridin-2-yl)cyclopropanecarboxamide] | 101 to 500 |
| O=C(Nc1nc2ccc(-c3c(I)c(F)cc4[nH]ncc34)cc2s1)[C@@H]1C[C@@H]1F [Example 48, (1S,2S)-2-fluoro-N-(6-(6-fluoro-5-iodo-1H-indazol-4-yl)benzo[d]thiazol-2-yl)cyclopropane-1-carboxamide] | < 100 |
| NC1CCN(c2c(F)c(Cl)c(-c3ccc4nc(NC(=O)[C@@H]5C[C@@H]5F)sc4c3)c3cn[nH]c23)CC1 [Example 83, (1S,2S)-N-(6-(7-(4-aminopiperidin-1-yl)-5-chloro-6-fluoro-1H-indazol-4-yl)benzo[d]thiazol-2-yl)-2-fluorocyclopropane-1-carboxamide] | 101 to 500 |
| O=C(Nc1nc2ccc(-c3c(C(F)(F)F)c(F)c(Cl)c4[nH]ncc34)nc2s1)[C@@H]1C[C@@H]1F [Example 198, (1S,2S)-N-(5-(7-chloro-6-fluoro-5-(trifluoromethyl)-1H-indazol-4-yl)thiazolo[5,4-b]pyridin-2-yl)-2-fluorocyclopropane-1-carboxamide] | < 100 |

More lines, now with the values ahead:

| IC50 [nM] | Structure (SMILES) |
| --- | --- |
| < 100 | Cc1c(F)c(OCCN(C)C(N)=O)c2[nH]ncc2c1-c1ccn2nc(NC(=O)[C@@H]3C[C@@H]3F)cc2c1 [Example 539, (1S,2S)-2-fluoro-N-(5-(6-fluoro-5-methyl-7-(2-(1-methylureido)ethoxy)-1H-indazol-4-yl)pyrazolo[1,5-a]pyridin-2-yl)cyclopropane-1-carboxamide] |
| < 100 | CCc1c(F)cc2[nH]ncc2c1-c1ccc2nc(NC(=O)[C@@H]3C[C@@H]3F)sc2c1 [Example 46, (1S,2S)-N-(6-(5-ethyl-6-fluoro-1H-indazol-4-yl)benzo[d]thiazol-2-yl)-2-fluorocyclopropane-1-carboxamide] |
| < 100 | CN(CC#N)C(=O)c1c(F)c(Cl)c(-c2ccn3nc(NC(=O)[C@@H]4C[C@@H]4F)cc3c2)c2cn[nH]c12 [Example 612, 5-chloro-N-(cyanomethyl)-6-fluoro-4-(2-((1S,2S)-2-fluorocyclopropane-1-carboxamido)pyrazolo[1,5-a]pyridin-5-yl)-N-methyl-1H-indazole-7-carboxamide] |
| < 100 | CN(c1ncncn1)c1c(F)c(Cl)c(-c2ccn3nc(NC(=O)[C@@H]4C[C@@H]4F)cc3c2)c2cn[nH]c12 [Example 617, (1S,2S)-N-(5-(5-chloro-6-fluoro-7-(methyl(1,3,5-triazin-2-yl)amino)-1H-indazol-4-yl)pyrazolo[1,5-a]pyridin-2-yl)-2-fluorocyclopropane-1-carboxamide] |
| < 100 | Cc1c(F)c(F)c2[nH]ncc2c1-c1ccn2nc(NC(=O)[C@@H]3C[C@@H]3F)cc2c1 [Example 481, (1S,2S)-N-(5-(6,7-difluoro-5-methyl-1H-indazol-4-yl)pyrazolo[1,5-a]pyridin-2-yl)-2-fluorocyclopropane-1-carboxamide] |
| < 100 | CCc1c(F)c(SC2(C#N)CC2)c2[nH]ncc2c1-c1ccn2nc(NC(=O)[C@@H]3C[C@@H]3F)cc2c1 [Example 608, (1S,2S)-N-(5-(7-((1-cyanocyclopropyl)thio)-5-ethyl-6-fluoro-1H-indazol-4-yl)pyrazolo[1,5-a]pyridin-2-yl)-2-fluorocyclopropane-1-carboxamide] |
| < 100 | CNC(=O)OCCSc1c(F)c(C)c(-c2ccn3nc(NC(=O)[C@@H]4C[C@@H]4F)cc3c2)c2cn[nH]c12 [Example 546, 2-((6-fluoro-4-(2-((1S,2S)-2-fluorocyclopropane-1-carboxamido)pyrazolo[1,5-a]pyridin-5-yl)-5-methyl-1H-indazol-7-yl)thio)ethyl methylcarbamate] |
| < 100 | CC1(F)CN(c2c(F)c(Cl)c(-c3ccn4nc(NC(=O)[C@@H]5C[C@@H]5F)cc4c3)c3cn[nH]c23)C1 [Example 632, (1S,2S)-N-(5-(5-chloro-6-fluoro-7-(3-fluoro-3-methylazetidin-1-yl)-1H-indazol-4-yl)pyrazolo[1,5-a]pyridin-2-yl)-2-fluorocyclopropane-1-carboxamide] |
| < 100 | CSc1c(F)c(F)c2[nH]ncc2c1-c1ccn2nc(NC(=O)[C@H]3C[C@H]3F)cc2c1 [Example 598, (1R,2R)-N-(5-(6,7-difluoro-5-(methylthio)-1H-indazol-4-yl)pyrazolo[1,5-a]pyridin-2-yl)-2-fluorocyclopropane-1-carboxamide] |
| < 100 | O=C(Nc1cc2cc(-c3c(Cl)c(F)c(C4CCCC4)c4[nH]ncc34)ccn2n1)[C@@H]1C[C@@H]1F [Example 651, (1S,2S)-N-(5-(5-chloro-7-cyclopentyl-6-fluoro-1H-indazol-4-yl)pyrazolo[1,5-a]pyridin-2-yl)-2-fluorocyclopropane-1-carboxamide] |
| < 100 | CC(C)(C#N)Nc1c(F)c(Cl)c(-c2ccn3nc(NC(=O)[C@@H]4C[C@@H]4F)cc3c2)c2cn[nH]c12 [Example 638, (1S,2S)-N-(5-(5-chloro-7-((2-cyanopropan-2-yl)amino)-6-fluoro-1H-indazol-4-yl)pyrazolo[1,5-a]pyridin-2-yl)-2-fluorocyclopropane-1-carboxamide] |
| < 100 | CSc1ccc(-c2ccn3nc(NC(=O)[C@@H]4C[C@@H]4F)cc3c2)c2cn[nH]c12 [Example 593, (1S,2S)-2-fluoro-N-(5-(7-(methylthio)-1H-indazol-4-yl)pyrazolo[1,5-a]pyridin-2-yl)cyclopropane-1-carboxamide] |

— US11649255B2, “Indazoles as hematopoietic progenitor kinase 1 (HPK1) inhibitors and methods using same” (1st Biotherapeutics, Inc., priority 2020, dated 2023)
